Patent US20220372040A1, “METTL3 MODULATORS” (Accent Therapeutics, Inc., priority 2020, published 2022)

Key:
METTL3/METTL14 = METTL3/METTL14 (Homo sapiens, UniProt Q86U44); test: METTL3-14 standard enzyme assay (3H-SAM flashplate scintillation); assay type: biochemical; conditions: METTL3/METTL14 2.5 nM, RNA 100 nM, 3H-SAM 100 nM, 30 min
Experimental: METTL3-14 Standard Enzyme Assay
Assays were performed in a 25 μl-volume in 384-well V-bottom polypropylene microplates (Greiner Bio-One, cat. No. 781280) at ambient temperature. Optimized 1× assay buffer was 20 mM HEPES pH 7.5, 50 mM KCl, 250 μM MgCl2, 1 mM DTT, 0.01% Tween, 0.01% BSG, 0.004 U/μl RNAseOUT (cat. No. 10777019, ThermoFisher Scientific, Waltham, Mass.). For compound screening METTL3/METTL14 (final concentration, f.c.=2.5 nM) was added using a Multidrop Combi (ThermoFisher Scientific, Waltham, Mass.) and preincubated for 5 min. Reactions were started by adding 3′ biotinylated RNA (UCUGGACUAAA-biotin) (f.c.=100 nM) and 3H-SAM (f.c.=100 nM) substrates. Reactions proceeded for 30 minutes and were quenched with excess non-radioactive SAM (f.c.=15 μM). The reactions were then transferred to streptavidin-coated flashplates and incubated for 2 hours at 25° C. Following two washing cycles with 0.1% Tween-20, the plates were sealed and read on a TopCount (PerkinElmer, Waltham, Mass.) plate-based scintillation counter. For determination of kinetic parameters, reaction times were optimized so that measurements were taken during the initial velocity phase of the reaction.

PRMT5-MEP50 = PRMT5-MEP50 (Homo sapiens, UniProt O14744); test: PRMT5 assay (3H-SAM flashplate scintillation); assay type: biochemical; conditions: PRMT5-MEP50 2.5 nM, histone H4 peptide 100 nM, 3H-SAM 250 nM, 60 min
PRMT5-MEP50, sequence (O14744 whole entry): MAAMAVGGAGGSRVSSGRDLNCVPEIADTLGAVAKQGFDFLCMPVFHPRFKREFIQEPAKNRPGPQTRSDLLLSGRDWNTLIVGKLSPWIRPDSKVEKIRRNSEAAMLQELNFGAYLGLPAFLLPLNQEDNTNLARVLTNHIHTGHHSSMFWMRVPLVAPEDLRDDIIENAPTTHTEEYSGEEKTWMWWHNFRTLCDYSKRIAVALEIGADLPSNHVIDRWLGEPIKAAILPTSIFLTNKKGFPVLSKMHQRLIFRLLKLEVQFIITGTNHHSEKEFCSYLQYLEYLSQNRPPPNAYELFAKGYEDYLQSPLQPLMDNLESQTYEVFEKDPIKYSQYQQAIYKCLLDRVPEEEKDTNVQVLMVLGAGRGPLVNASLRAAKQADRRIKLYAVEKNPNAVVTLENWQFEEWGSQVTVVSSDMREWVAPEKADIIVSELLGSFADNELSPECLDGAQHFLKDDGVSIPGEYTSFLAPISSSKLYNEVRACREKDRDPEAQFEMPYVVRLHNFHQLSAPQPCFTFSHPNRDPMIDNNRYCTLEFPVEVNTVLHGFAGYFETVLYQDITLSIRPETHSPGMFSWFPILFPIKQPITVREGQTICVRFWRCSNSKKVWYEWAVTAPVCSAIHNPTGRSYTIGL
PRMT5-MEP50, sequence (Q9BQA1 whole entry partner): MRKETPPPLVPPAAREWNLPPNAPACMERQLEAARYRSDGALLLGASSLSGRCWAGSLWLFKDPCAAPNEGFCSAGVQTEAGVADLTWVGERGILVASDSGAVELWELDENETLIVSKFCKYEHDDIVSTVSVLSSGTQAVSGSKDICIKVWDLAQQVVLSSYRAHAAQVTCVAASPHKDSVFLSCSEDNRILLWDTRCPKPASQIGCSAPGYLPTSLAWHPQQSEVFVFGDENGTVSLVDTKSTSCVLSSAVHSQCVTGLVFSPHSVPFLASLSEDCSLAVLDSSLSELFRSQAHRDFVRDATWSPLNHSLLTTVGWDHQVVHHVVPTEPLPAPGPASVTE
Experimental: Assays were performed in a 25 μl-volume in 384-well V-bottom polypropylene microplates (Greiner Bio-One, cat. No. 781280) at ambient temperature. Optimized 1× assay buffer was 20 mM Tris-HCl pH 8.0, 1 mM DTT, […]. For compound screening PRMT5-MEP50 (final concentration, f.c.=2.5 nM) was added using a Multidrop Combi (ThermoFisher Scientific, Waltham, Mass.) and preincubated for 5 min. Reactions were started by adding 3′ biotinylated histone H4 peptide acetylated on serine 1 (Ac-[…]-Biotin) (f.c.=100 nM) and 3H-SAM (f.c.=250 nM) substrates. Reactions proceeded for 60 minutes and were quenched with excess non-radioactive SAM (f.c.=15 μM). The reactions were then transferred to streptavidin-coated flashplates and incubated for 2 hours at 25° C. Following two washing cycles with 0.1% Tween-20, the plates were sealed and read on a TopCount (PerkinElmer, Waltham, Mass.) plate-based scintillation counter. For determination of kinetic parameters, reaction times were optimized so that measurements were taken during the initial velocity phase of the reaction.

METTL3/METTL14, sequence (Q86U44 whole entry, species assumed): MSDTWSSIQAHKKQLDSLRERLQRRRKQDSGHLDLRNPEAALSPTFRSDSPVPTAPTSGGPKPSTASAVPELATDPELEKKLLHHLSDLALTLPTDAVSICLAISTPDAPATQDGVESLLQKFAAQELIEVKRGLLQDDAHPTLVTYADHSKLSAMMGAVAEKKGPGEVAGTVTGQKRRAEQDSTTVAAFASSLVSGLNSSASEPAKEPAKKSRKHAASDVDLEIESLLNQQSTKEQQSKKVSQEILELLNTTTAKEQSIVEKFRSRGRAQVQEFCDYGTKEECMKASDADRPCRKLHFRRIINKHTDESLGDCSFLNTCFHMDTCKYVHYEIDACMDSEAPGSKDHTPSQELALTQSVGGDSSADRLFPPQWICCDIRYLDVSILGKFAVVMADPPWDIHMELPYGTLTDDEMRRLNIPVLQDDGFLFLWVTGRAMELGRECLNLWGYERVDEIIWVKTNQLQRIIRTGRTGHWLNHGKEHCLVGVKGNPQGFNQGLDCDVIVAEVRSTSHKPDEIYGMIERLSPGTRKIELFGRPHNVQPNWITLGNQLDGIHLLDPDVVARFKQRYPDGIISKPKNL
METTL3/METTL14, sequence (Q9HCE5 whole entry partner, species assumed): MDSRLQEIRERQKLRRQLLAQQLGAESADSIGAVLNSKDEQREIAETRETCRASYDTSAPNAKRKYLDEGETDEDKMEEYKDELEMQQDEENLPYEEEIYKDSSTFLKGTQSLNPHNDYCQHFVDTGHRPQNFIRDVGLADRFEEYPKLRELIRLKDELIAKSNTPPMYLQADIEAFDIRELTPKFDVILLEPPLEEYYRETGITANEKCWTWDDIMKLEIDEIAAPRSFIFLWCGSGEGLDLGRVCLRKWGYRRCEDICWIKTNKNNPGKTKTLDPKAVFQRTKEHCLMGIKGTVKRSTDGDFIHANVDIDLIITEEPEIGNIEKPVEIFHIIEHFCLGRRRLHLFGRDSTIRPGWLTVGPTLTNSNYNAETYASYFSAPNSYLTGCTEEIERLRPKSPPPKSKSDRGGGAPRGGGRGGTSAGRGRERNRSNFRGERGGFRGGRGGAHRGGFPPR

| SMILES | IC50 (METTL3/METTL14) [nM] | IC50 (PRMT5-MEP50) [nM] |
| --- | --- | --- |
| Nc1ncnc2c1c(C1CCCO1)cn2-c1cncc(COc2cnc3ccc(N4CCC4)nc3c2)c1 (stereo not drawn) [Compound I-207] | > 1000 | > 1000 |
| CC(C)c1cc(N)c2ccc(CCc3cncc(-n4cc(C5CCCC5)c5c(N)ncnc54)c3)cc2n1 [Compound I-130] | 10 to 100 | – |
| CCc1cc(NCCOC)c2c(F)cc(OCc3cncc(-n4cc(C5CCCO5)c5c(N)ncnc54)n3)cc2n1 (stereo not drawn) [Compound I-172] | > 1000 | > 1000 |
| CN(CC1CC1)C(=O)c1ccc(OCc2cncc(-n3cc(-c4ccn(C)n4)c4c(N)ncnc43)c2)cc1N [Compound I-179] | > 1000 | > 1000 |
| CC(C)c1cc(N)c2ccc(OCc3cncc(-c4c[nH]c5c(N)ncnc45)c3)cc2n1 [Compound I-101] | < 10 | > 1000 |
| COCCN(C)C(=O)c1ccc(OCc2cncc(-n3cc(-c4ccn(C)n4)c4c(N)ncnc43)c2)cc1N [Compound I-191] | > 1000 | > 1000 |
| Nc1ncnc2c1ccn2-c1csc(COc2ccc3ccc(N4CCCC4)nc3c2)n1 [Compound I-54] | 100 to 1000 | > 1000 |
| Nc1cc(OCc2cncc(-n3ccc4c(N)ncnc43)c2)ccc1C(=O)N1CCNCC1 [Compound I-215] | > 1000 | > 1000 |
| CCc1cc(N2CCC2)nc2cc(F)cc(OCc3cncc(-n4cc(C5CCCO5)c5c(N)ncnc54)c3)c12 (stereo not drawn) [Compound I-198] | > 1000 | > 1000 |
| CN(CCO)C(=O)c1ccc(OCc2cncc(-n3cc(-c4ccn(C)n4)c4c(N)ncnc43)c2)cc1N [Compound I-209] | > 1000 | > 1000 |
| CCc1cc(NCCOC)c2ccc(OCc3cncc(-n4cc([C@H]5CCCO5)c5c(N)ncnc54)c3)cc2n1 [Compound I-133] | 10 to 100 | – |
| CCc1cc(N2CCC2)nc2cc(OCc3cncc(-n4cc(C5CCCO5)c5c(N)ncnc54)c3)cc(F)c12 (stereo not drawn) [Compound I-199] | > 1000 | > 1000 |
| Nc1ncnc2c1c([C@@H]1CCCO1)cn2-c1cncc(COc2ccc3ccc(N4CCC4)nc3c2)n1 [Compound I-161] | < 10 | – |
| CCNc1ccc2ccc(CCc3cncc(-n4cc([C@H]5CCCO5)c5c(N)ncnc54)n3)cc2n1 [Compound I-139] | 10 to 100 | – |
| CN(C)CCNC(=O)c1ccc(OCc2cncc(-n3ccc4c(N)ncnc43)c2)cc1N [Compound I-216] | > 1000 | > 1000 |
| Nc1ncnc2c1c([C@H]1CCCO1)cn2-c1cncc(COc2ccc3ccc(N4CCC4)nc3c2)n1 [Compound I-160] | 10 to 100 | – |

| SMILES | IC50 (METTL3/METTL14) [nM] | IC50 (PRMT5-MEP50) [nM] |
| --- | --- | --- |
| CCc1cc(C)c2ccc(OCc3cncc(-n4cc([C@@H]5CCCO5)c5c(N)ncnc54)c3)cc2n1 [Compound I-168] | 10 to 100 | – |
| Cn1ccc(-c2cn(-c3cncc(COC(=O)Nc4cccc(Br)n4)c3)c3ncnc(N)c23)n1 [Compound I-223] | > 1000 | > 1000 |
| CCc1cc(NCCOC)c2ncc(OCc3cncc(-n4cc([C@H]5CCCO5)c5c(N)ncnc54)c3)cc2n1 [Compound I-151] | 10 to 100 | – |
| CCNc1ccc2ccc(CCc3cncc(-n4cc(C5CCCO5)c5c(N)ncnc54)c3)cc2n1 (stereo not drawn) [Compound I-157] | 10 to 100 | – |
| CN(C)CCNC(=O)c1ccc(OCc2cncc(-n3cc(Br)c4c(N)ncnc43)c2)cc1N [Compound I-218] | > 1000 | > 1000 |
| CCc1cc(=O)c2ccc(OCc3cncc(-n4cc(C5CCCC5)c5c(N)ncnc54)c3)cc2[nH]1 [Compound I-105] | 100 to 1000 | > 1000 |
| Nc1cc(OCc2cncc(-n3cc([C@@H]4CCCO4)c4c(N)ncnc43)c2)ccc1C(=O)N1CCNCC1 [Compound I-166] | 100 to 1000 | – |
| Cn1ccc(-c2cn(-c3cncc(COc4cc(F)ccc4C(=O)NC4CCOCC4)c3)c3ncnc(N)c23)n1 [Compound I-181] | > 1000 | > 1000 |
| CC(C)c1cc(N)c2ccc(CCc3cncc(-n4ccc5c(N)ncnc54)c3)cc2n1 [Compound I-129] | 10 to 100 | – |
| CCNc1ccc2ccc(CCc3cncc(-n4cc([C@@H]5CCCO5)c5c(N)ncnc54)n3)cc2n1 [Compound I-140] | < 10 | – |
| CCc1cc(NC(C)=O)c2ccc(OCc3cncc(-n4cc([C@@H]5CCCO5)c5c(N)ncnc54)c3)cc2n1 [Compound I-165] | 10 to 100 | – |
| CCc1cc(NCCOC)c2c(F)cc(OCc3cncc(-n4cc([C@H]5CCCO5)c5c(N)ncnc54)c3)cc2n1 [Compound I-163] | 10 to 100 | – |
| CCc1cc(N2CCNCC2)c2ccc(OCc3cncc(-n4cc([C@H]5CCCO5)c5c(N)ncnc54)c3)cc2n1 [Compound I-148] | 10 to 100 | – |
| CCc1cc(NCCOC)c2c(F)cc(OCc3cncc(-n4cc([C@@H]5CCCO5)c5c(N)ncnc54)c3)cc2n1 [Compound I-164] | 10 to 100 | – |
| Nc1ncnc2c1c(Cl)cn2-c1cccc(COc2ccc3ccc(N4CCCC4)nc3c2)c1 [Compound I-63] | > 1000 | – |

Other lines, results leading:

| IC50 (METTL3/METTL14) [nM] | IC50 (PRMT5-MEP50) [nM] | SMILES |
| --- | --- | --- |
| 10 to 100 | > 1000 | Cn1ccc(-c2cn(-c3cncc(COc4ccc5ccc(N6CC7(CC7)C6)nc5c4)c3)c3ncnc(N)c23)n1 [Compound I-203] |
| 100 to 1000 | > 1000 | Cn1ccc(-c2cn(-c3cncc(COc4ccc(CN5CCOCC5)c(N)c4)c3)c3ncnc(N)c23)n1 [Compound I-210] |
| > 1000 | 100 to 1000 | Cn1ccc(-c2cn(-c3cncc(C[S+]([O-])c4ccc5ccc(N6CCC6)nc5c4)c3)c3ncnc(N)c23)n1 (stereo not drawn) [Compound I-221, 7-[5-({[2-(azetidin-1-yl)quinolin-7-yl]sulfinyl}methyl)pyridin-3-yl]-5-(1-methyl-1H-pyrazol-3-yl)-7H-pyrrolo[2,3-d]pyrimidin-4-amine] |
| > 1000 | > 1000 | Cn1ccc(-c2cn(-c3cncc(COc4ccc(-c5ncco5)c(N)c4)c3)c3ncnc(N)c23)n1 [Compound I-211] |
| 100 to 1000 | > 1000 | Cn1ccc(-c2cn(-c3cncc(COc4ccc5ccc(N6CC7(COC7)C6)nc5c4)c3)c3ncnc(N)c23)n1 [Compound I-201] |
| 10 to 100 | > 1000 | CC(=O)NC1CN(c2ccc3ccc(OCc4cncc(-n5cc(-c6ccn(C)n6)c6c(N)ncnc65)c4)cc3n2)C1 [Compound I-202] |
| < 10 | – | Nc1ncnc2c1c(CO)cn2-c1cncc(COc2ccc3ccc(N4CCC4)nc3c2)c1 [Compound I-182] |
| > 1000 | > 1000 | Cn1ccc(-c2cn(-c3cncc(COc4ccc5ccc(N6CCCC6=O)nc5c4)c3)c3ncnc(N)c23)n1 [Compound I-195] |
| 10 to 100 | > 1000 | CCc1ccc2ccc(OCc3cncc(-n4cc(-c5ccn(C)n5)c5c(N)ncnc54)c3)cc2n1 [Compound I-180] |
| 100 to 1000 | > 1000 | Cn1ccc(-c2cn(-c3cncc(COc4ccc(C(=O)N5CCNCC5)c(N)c4)c3)c3ncnc(N)c23)n1 [Compound I-176] |
| > 1000 | > 1000 | Cn1ccc(-c2cn(-c3cncc(COc4ccc(C(=O)N5CCOCC5)c(N)c4)c3)c3ncnc(N)c23)n1 [Compound I-178] |
| 10 to 100 | > 1000 | Cn1ccc(-c2cn(-c3cncc(COc4cc(F)c5ccc(N6CCC6)nc5c4)c3)c3ncnc(N)c23)n1 [Compound I-208] |
| < 10 | > 1000 | Cn1ccc(-c2cn(-c3cncc(CSc4ccc5ccc(N6CCC6)nc5c4)c3)c3ncnc(N)c23)n1 [Compound I-219, 7-[5-({[2-(azetidin-1-yl)quinolin-7-yl]sulfanyl}methyl)pyridin-3-yl]-5-(1-methyl-1H-pyrazol-3-yl)-7H-pyrrolo[2,3-d]pyrimidin-4-amine] |
| 100 to 1000 | > 1000 | Cn1ccc(-c2cn(-c3cncc(COc4ccc(CN5CCC(CO)CC5)c(N)c4)c3)c3ncnc(N)c23)n1 [Compound I-200] |
| > 1000 | > 1000 | Cn1ccc(-c2cn(-c3cncc(COc4ccc5ccc(N6CCOCC6=O)nc5c4)c3)c3ncnc(N)c23)n1 [Compound I-214] |
| 100 to 1000 | > 1000 | CN1CCN(c2ccc3ccc(OCc4cncc(-n5cc(-c6ccn(C)n6)c6c(N)ncnc65)c4)cc3n2)CC1 [Compound I-204] |
| 100 to 1000 | > 1000 | CN(CCS(C)(=O)=O)c1ccc2ccc(OCc3cncc(-n4cc(-c5ccn(C)n5)c5c(N)ncnc54)c3)cc2n1 [Compound I-175] |
| > 1000 | > 1000 | Cn1ccc(-c2cn(-c3cncc(COc4ccc5ccc(N6CCC6=O)nc5c4)c3)c3ncnc(N)c23)n1 [Compound I-188] |
